{"source": "patent US20180207172A1", "about": "“TREATMENT FOR VITILIGO” (GLAXO GROUP LIMITED, priority 2015, published 2018)", "tested_on": "CXCL10 secretion induced by poly(I:C) in HaCaT cells", "test": "poly(I:C)-induced CXCL10 secretion assay in HaCaT cells (ELISA)", "assay_type": "cell-based, Human", "conditions": "poly(I:C) 20 μg/ml, 48 hours", "protocol": "In another CXCL10 assay, immortalized keratinocytes (HaCaTs) cells (AddexBio #T0020001) were cultured in DMEM (Thermo Fisher #10566-016) supplemented with 10% FBS and 1% penicillin/streptomycin. 1×10^5 HaCaT cells were seeded per well of a 24-well culture dish in 400 μl culture medium. Once confluent, medium was aspirated and cells were pretreated with 200 μl of DMSO vehicle (0.1%) or 3-fold serial dilutions ([…]) of 7-(2-(methyloxy)-6-{[(4-methyl-2-pyridinyl)methyl]oxy}-phenyl)-2,3,4,5-tetrahydro-1H-3-benzazepine (Compound 1) for 30 minutes at 37° C. with 5% CO2. After pre-treatment, 200 μl of poly(I:C) at 40 μg/ml was added per well (without removal of pre-treatment medium), making the final treatment concentration 20 μg/ml. Additional compound and/or DMSO was included to maintain concentrations. All samples received 0.1% DMSO during both pre-treatment and treatment phases. Cells were returned to the incubator for 48 hours. Each condition had biological triplicates.\nAt 48 hours, supernatants were collected, centrifuged to pellet debris, and then re-collected. CXCL10 secreted into the supernatant was measured by the Human CXCL10/IP-10 Quantikine ELISA Kit (R&D Systems #DIP 100) according to the manufacturer's protocol. […]"}
{"molecule": "COc1cccc(OCc2cc(C)ccn2)c1-c1ccc2c(c1)CCNCC2", "note": "[Compound 1, 7-(2-(methyloxy)-6-{[(4-methyl-2-pyridinyl)methyl]oxy}-phenyl)-2,3,4,5-tetrahydro-1H-3-benzazepine]", "values": [{"measurement": "CXCL10 secretion induced by poly(I:C), percentage of maximum stimulation (vehicle = 100%)", "setting": "30 min pre-treatment, supernatant ELISA, FIG. 1", "value": "dose-dependent decrease"}, {"measurement": "dose concentration at which maximal inhibition of CXCL10 secretion was observed", "setting": "highest concentration tested", "value": 10, "unit": "µM"}]}
